The source of these data is article PMC3598492, “Cannabinoid receptor type 2 (CB2)-selective N-aryl-oxadiazolyl-propionamides: synthesis, radiolabelling, molecular modelling and biological evaluation” (Organic and Medicinal Chemistry Letters, 2012).

Read-outs that look alike come from different tables or passages of the source.

The target in one experiment is T1, hCB1 (Homo sapiens, UniProt P21554).
T1 construct: host or cells: CHO (hCB1-CHO), crude membrane homogenates
Nature of the experiment: Competitive [3H]CP55,940 binding on membrane homogenates of hCB1-CHO cells. The method, then: (§1) CHO cell lines stably transfected with human CB1 (hCB1-CHO; obtained from Euroscreen, Gosselies, Belgium) or human CB2 (hCB2-CHO; obtained from Paul L. Prather, Department of Pharmacology and Toxicology, College of Medicine, University of Arkansas for Medical Sciences, USA) were cultured in Ham's F12 medium or Dulbecco's modified Eagle's medium (DMEM) with 10% fetal calf serum, 100 IU/mL penicillin, 100 μg/mL streptomycin and 250 or 400 μg/mL of the selection antibiotic Geneticin (G418), respectively. The cells were cultured in a humidified atmosphere with 5% CO2 at 37°C. Confluent cell layers of 175-cm^2 flasks were scraped; cells were harvested by centrifugation (800 rpm, 3 min), counted by trypan blue staining, suspended in 200 μL of 50 mM tris(hydroxymethyl)aminomethane (TRIS; pH 7.4) at 4°C and stored at −32°C until the binding experiment.
(§2) Competitive binding experiments were performed with crude membrane homogenates obtained from hCB1-CHO or hCB2-CHO cells as described above. […] Incubations were terminated by rapid filtration through a GF-B glass fibre filter pre-incubated for 90 min at room temperature in freshly prepared 0.5% polyvinylpyrrolidone + 0.1% Tween 20 solution using a 48-well cell harvester (Brandel, Gaithersburg, MD, USA).
Binding data were analysed using GraphPad Prism version 2.01 (GraphPad Software, Inc., San Diego, CA, USA) by non-linear regression to provide estimates of the half maximal inhibitory concentration (IC50) values and the […]. […] The corresponding inhibition constants (Ki) of test compounds were derived from the IC50 values using the Cheng-Prusoff equation [49]. All binding experiments were performed in triplicates, and data are given as mean values from independent experiments.

A further experiment deals with T2, hCB2 (Homo sapiens, UniProt P34972).
T2 construct: host or cells: CHO (hCB2-CHO), crude membrane homogenates
T2 sequence (P34972 whole entry): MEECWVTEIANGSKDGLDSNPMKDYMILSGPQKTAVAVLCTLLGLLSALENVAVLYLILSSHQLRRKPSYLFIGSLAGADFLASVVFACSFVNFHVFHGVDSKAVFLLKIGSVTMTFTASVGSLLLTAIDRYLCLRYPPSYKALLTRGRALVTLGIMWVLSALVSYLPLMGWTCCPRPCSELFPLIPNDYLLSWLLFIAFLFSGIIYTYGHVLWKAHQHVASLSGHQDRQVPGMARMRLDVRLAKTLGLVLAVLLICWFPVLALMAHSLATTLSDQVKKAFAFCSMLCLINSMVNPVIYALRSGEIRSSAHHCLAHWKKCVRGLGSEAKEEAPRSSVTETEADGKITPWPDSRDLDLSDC
Description: Competitive [3H]CP55,940 binding on membrane homogenates of hCB2-CHO cells. The following applies: for Binding to hCB2 in words: hCB2-CHO; for Selectivity, pKi (CB2) – pKi (CB1): pKi = -log (Ki); for Selectivity, pKi (CB2) – pKi (CB1) / Selectivity over hCB1: hCB2 versus hCB1. As for the experimental part:
as §1, §2
The corresponding inhibition constants (Ki) of test compounds were derived from the IC50 values using the Cheng-Prusoff equation [49]. All binding experiments were performed in triplicates, and data are given as mean values from independent experiments.

Experiment [1] addresses T3, CB2 receptors in mouse spleen tissue (Mus musculus, UniProt P47936).
T3 construct: 12-μm-thick coronal sections obtained from the spleens of three animals; from tissue; host or cells: spleen sections of female CD-1 mice
Nature of the experiment: Autoradiographic displacement of [3H]CP55,940 on coronal mouse spleen sections. The format is binding. As to conditions: for receptor occupancy at 1 µM: read-out: Fractional occupancy of [3H]CP55,940 binding sites calculated by Gaddum equation; for Displacement of the specific binding of 6 nM [3H]CP55,940: mouse spleen sections, HD regions. The method, then: Animal experiments were performed under procedures approved by the State of Saxony Animal Care and Use Committee and conducted in accordance with the German Law for the Protection of Animals. Female CD-1 mice (10 to 12 weeks old, 20 to 25 g), obtained from the Medizinisch-Experimentelles Zentrum der Universität Leipzig (Leipzig, Germany), were used for the experiments.
The animals were anesthetized and sacrificed, and their spleens were rapidly removed and frozen in isopentane at −35°C. The spleens were brought to −15°C in a cryostat (Microm International GmbH, Walldorf, Germany), and a series of 12-μm-thick coronal sections obtained from the spleens of three animals were collected in parallel on microscopic glass slides. The sections were dried at room temperature and stored at −35°C until they were processed for receptor binding autoradiography.
For autoradiographic experiments, the slides were brought to room temperature, dried in a stream of cold air, pre-incubated in a binding buffer (50 mM TRIS (pH 7.4) at 21°C, 5% BSA) for 15 min at room temperature and dried again in a stream of cold air. […] Samples were washed twice for 30 min at 4°C in 50 mM TRIS (pH 7.4) at 4°C, containing 1% BSA, dipped briefly in ice-cold deionized water (5 s), dried in a stream of cold air and exposed along with [^3H] standards (Amersham/GE Healthcare, Piscataway, NJ, USA) for 14 days to [^3H]-sensitive screen plates (Fuji Photo Film, Co. Ltd., Tokyo, Japan).
The image plates were analysed using a BAS-1800II system bioimaging analyser (Fuji Photo Film, Co. Ltd., Tokyo, Japan). Scan data were visualized and processed by computer-assisted microdensitometry (Aida version 2.31, Raytest Isotopenmessgeräte GmbH, Straubenhardt, Germany). Irregular regions of interest (ROIs) were drawn on selected areas of the spleen labelled as red pulp (low-density binding) and white pulp (high-density binding) according to Lynn and Herkenham and Massi et al..

[2] abbreviates: read-out: Affinity (Ki) towards hCB2.
The mark [3] stands for this setting: read-out: Affinity (Ki) towards hCB1.

T1 sequence (P21554 whole entry): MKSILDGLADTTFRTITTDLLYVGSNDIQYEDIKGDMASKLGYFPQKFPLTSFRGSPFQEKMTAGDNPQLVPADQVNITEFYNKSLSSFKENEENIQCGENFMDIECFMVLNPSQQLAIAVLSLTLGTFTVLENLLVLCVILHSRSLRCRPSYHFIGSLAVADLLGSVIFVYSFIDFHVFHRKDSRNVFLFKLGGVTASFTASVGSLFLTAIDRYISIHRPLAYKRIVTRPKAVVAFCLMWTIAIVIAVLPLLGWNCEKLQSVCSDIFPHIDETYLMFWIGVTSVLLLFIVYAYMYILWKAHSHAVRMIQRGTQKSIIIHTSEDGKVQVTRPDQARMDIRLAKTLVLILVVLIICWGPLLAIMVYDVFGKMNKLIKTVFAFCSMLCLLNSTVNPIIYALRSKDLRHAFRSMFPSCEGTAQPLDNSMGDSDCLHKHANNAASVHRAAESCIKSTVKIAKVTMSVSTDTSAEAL
T3 sequence (P47936 whole entry): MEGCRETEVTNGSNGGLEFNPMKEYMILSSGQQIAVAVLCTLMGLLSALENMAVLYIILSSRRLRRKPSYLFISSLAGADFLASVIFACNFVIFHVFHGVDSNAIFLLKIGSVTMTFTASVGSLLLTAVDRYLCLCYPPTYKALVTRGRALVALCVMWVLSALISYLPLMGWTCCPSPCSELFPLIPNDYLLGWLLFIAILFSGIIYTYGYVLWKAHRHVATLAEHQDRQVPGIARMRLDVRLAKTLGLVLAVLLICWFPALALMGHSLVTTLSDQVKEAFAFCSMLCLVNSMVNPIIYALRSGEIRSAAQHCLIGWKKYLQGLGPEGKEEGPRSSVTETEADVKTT

The Ki is a measure of affinity in units of concentration, obtained from inhibition or displacement. Regarding `N#Cc1cc(F)ccc1-c1noc(CCC(=O)Nc2cnc3ccccc3c2)n1` [Compound 2a, 3-(3-(2-Cyano-4-fluorophenyl)-1,2,4-oxadiazol-5-yl)-N-(quinolin-3-yl)propanamide], the “Binding to hCB1 in words” value at hCB1 (hCB1-CHO) is “could not be observed”. Besides, the “Fold lower hCB2 affinity” value at hCB2 (in comparison to 6a) is “approximately 100 fold”. The Ki at hCB2 (setting [2]) was 722 nM.

For the molecule `O=C(CCc1nc(-c2ccc(F)nc2)no1)Nc1cnc2ccccc2c1` [Compound 2b, 3-(3-(6-Fluoropyridin-3-yl)-1,2,4-oxadiazol-5-yl)-N-(quinolin-3-yl)propanamide], at hCB1 (hCB1-CHO), the “Binding to hCB1 in words” value was “could not be observed”. On hCB2, the “Binding to hCB2 in words” value is “low affinity”. Moreover, the Ki at hCB2 (setting [2]) turned out to be 2290 nM.

As for `O=C(CCc1nc(-c2ccc(Br)nc2)no1)Nc1cnc2ccccc2c1` [Compound 2c, 3-(3-(6-Bromopyridin-3-yl)-1,2,4-oxadiazol-5-yl)-N-(quinolin-3-yl)propanamide], the “Binding to hCB1 in words” value on hCB1 (hCB1-CHO) is recorded as “could not be observed”. The “Binding to hCB2 in words” value on hCB2 is given as “low affinity”. The Ki at hCB2 (setting [2]) is greater than 100000 nM.

In the case of `CCn1c2ccccc2c2cc(NC(=O)CCc3nc(-c4ccc(F)nc4)no3)ccc21` [Compound 6b, 3-(3-(6-Fluoropyridin-3-yl)-1,2,4-oxadiazol-5-yl)-N-(9-ethyl-9H-carbazol-3-yl)propanamide], the Ki is 1560 nM on hCB1 (setting [3]) and 135 nM on hCB2 (setting [2]). Moreover, on hCB2, the “Binding to hCB2 in words” value was “low affinity”. Also, the “Selectivity, pKi (CB2) – pKi (CB1)” value at hCB2 is on record as 1.06.

Regarding `CCn1c2ccccc2c2cc(NC(=O)CCc3nc(-c4ccc([N+](=O)[O-])cc4F)no3)ccc21` [Compound 6d, 3-(3-(2-Fluoro-4-nitrophenyl)-1,2,4-oxadiazol-5-yl)-N-(9-ethyl-9H-carbazol-3-yl)propanamide], on hCB1 (setting [3]), the Ki stood at 7470 nM. At hCB2, the inhibitory constant (Ki) came to 12.5 nM and the “Selectivity, pKi (CB2) – pKi (CB1)” value stood at 2.78.

Regarding `CCn1c2ccccc2c2cc(NC(=O)CCc3nc(-c4ccc(F)cc4Br)no3)ccc21` [Compound 6e, 3-(3-(2-Bromo-4-fluorophenyl)-1,2,4-oxadiazol-5-yl)-N-(9-ethyl-9H-carbazol-3-yl)propanamide], the Ki at hCB1 (hCB1-CHO, read-out: Ki hCB1) is greater than 1000 nM. Moreover, the “Selectivity over hCB1” value at hCB2 was “more than 1,000 fold”. Moreover, the receptor occupancy at 1 µM in experiment [1] is 97%.

In the case of `CCn1c2ccccc2c2cc(NC(=O)CCc3nc(-c4ccc([N+](=O)[O-])cc4Br)no3)ccc21` [Compound 6g, 3-(3-(2-Bromo-4-nitrophenyl)-1,2,4-oxadiazol-5-yl)-N-(9-ethyl-9H-carbazol-3-yl)propanamide], on hCB1 (setting [3]), the Ki is 397 nM. Also, on hCB2, the Ki came out at 2.38 nM and the “Selectivity, pKi (CB2) – pKi (CB1)” value came to 2.22.

For `CCn1c2ccccc2c2cc(NC(=O)CCc3nc(-c4ccc(F)cc4F)no3)ccc21` [Compound 6h, 3-(3-(2,4-Difluorophenyl)-1,2,4-oxadiazol-5-yl)-N-(9-ethyl-9H-carbazol-3-yl)propanamide], at hCB1 (hCB1-CHO, read-out: Ki hCB1), the Ki was greater than 1000 nM. Further, at hCB2, the inhibition constant (Ki) worked out at 39.4 nM and the “Selectivity over hCB1” value is reported as “more than 1,000 fold”. Besides, in experiment [1], the receptor occupancy at 1 µM was 83%.

Take `O=C(CCc1nc(-c2ccc(F)cc2F)no1)Nc1cn(Cc2ccccc2)c2ccccc12` [Compound 7h, 3-(3-(2,4-Difluorophenyl)-1,2,4-oxadiazol-5-yl)-N-(1-benzyl-1H-indol-3-yl)-propanamide]: the “Binding to hCB1 in words” value on hCB1 (hCB1-CHO) was “Weak affinity”. Also, the Ki is 6010 nM at hCB1 (setting [3]) and greater than 100000 nM on hCB2 (setting [2]). Further, the “Binding to hCB2 in words” value on hCB2 is “lost”.

As to `Cc1c(C(=O)NN2CCCCC2)nn(-c2ccc(Cl)cc2Cl)c1-c1ccc(Cl)cc1` [SR141716A], the “Specific CP55,940 binding remaining” value in experiment [1] (1 μM compound, 6 nM [3H]CP55,940, mouse spleen) is on record as 94%. For the same molecule, in experiment [1] (1 μM compound), the “Displacement of the specific binding of 6 nM [3H]CP55,940” value is “nearly no displacement”.

For the molecule `CCCCCCC(C)(C)c1ccc([C@@H]2C[C@H](O)CC[C@H]2CCCO)c(O)c1` [^3H]CP55,940], in experiment [1] (6 nM [3H]CP55,940, mouse spleen), the “Density of specific binding sites” value was found to be 150 ± 25 fmol/mg wet weight. Also, the “Specific binding as share of total binding” value in experiment [1] (mouse spleen autoradiography) is “approximately 90%”.

Regarding SR144528, the “Displacement of the specific binding of 6 nM [3H]CP55,940” value in experiment [1] (1 μM compound) worked out at 78%.
